# Results: US20240034729A9, “HETEROCYCLIC COMPOUND, INTERMEDIATE, PREPARATION METHOD THEREFOR AND APPLICATION THEREOF” (WUHAN LL SCIENCE AND TECHNOLOGY DEVELOPMENT CO., LTD., priority 2018, published 2024)
# “Also recorded” adds a separate entry of the source. Where two headings read alike, the source gives them in different places.
# Tests used:
# [1] = system: Male Dunkin Hartley guinea pigs; assay: ATP-citric acid cough model; type: in vivo, guinea pig; conditions: for Number of coughs / cough inhibition (in words): compared with the vehicle group
# Method: Male Dunkin Hartley guinea pigs (300-400 g) were placed into a whole-body plethysmography box to adapt for 3-5 min, then ATP atomization is carried out for 2 min, and 3 min later, 5 min of citric acid atomization was followed, with all atomization rates being about 300 uL/min. The number of coughs and the cough latency of the animals within 10 min from the start of the citric acid atomization were recorded. During the 10-min observation, coughs of the animals were counted manually, and the coughs were judged according to cough postures of the guinea pigs, such as abdominal twitching, mouth opening, head inclining downward abruptly and the like. The number of coughs during 10 min were recorded, and the cough latency of the guinea pigs was also recorded.
# The animals were divided into a vehicle group, a dextromethorphan (63 mg/kg) positive group, an AF-219 (30 mg/kg) positive group and Example 173 compound (3, 10, 30 mg/kg) administration groups, and all the compounds were orally administered. Except that dextromethorphan was administered 40 min before ATP-citric acid exposure, the remaining compounds were administered 2 h before ATP-citric acid exposure.
# [2] = phase II clinical trial; cited from earlier work
# [3] = biological target: hP2X3 (human purinergic P2X receptor subtype 3) (Homo sapiens (Human), UniProt P56373); assay: FLIPR calcium assay, hP2X3 expressed in HEK293 cells; type: cell-based; conditions: read-out: P2X3 IC50
# [4] = biological target: hP2X2/3 (heterodimeric receptors formed by human purinergic P2X receptors subtype 2 and subtype 3) (Homo sapiens (Human), UniProt P56373+Q9UBL9); assay: FLIPR calcium assay, hP2X2/3 expressed in HEK293 cells (P2X2/3 receptor selectivity); type: cell-based
# [5] = system: Male Dunkin Hartley guinea pigs; assay: Citric acid only cough model; type: in vivo, guinea pig; parameters: Mean cough latency: unit not given beside the values; conditions: for Number of coughs and cough latency (in words): compared with the blank vehicle or the condition before administration; for inhibition in vivo at 30 mg/kg: Cavia porcellus; for Mean number of coughs: 17.5% citric acid
# Method: Male Dunkin Hartley guinea pigs (300-350 g) were placed in an animal atomization box, and then the door of the atomization box was closed while the ultrasonic atomizer (Guangdong Yuehua) was turned on. 17.5% citric acid gas was introduced into the atomization box at a maximum atomization rate (about 2 mL/min) for 20 s, and coughs of the animals within 10 min were continuously observed from the time of the start of atomization. During the 10-min observation, coughs of the animals were counted manually, and the number of coughs were judged according to cough postures of the guinea pigs, such as abdominal twitching, mouth opening, and head inclining downward abruptly. The number of coughs during the first 5 min and that during 10 min were recorded, and the cough latency of the guinea pigs, namely the time from the initiation of citric acid induction to the appearance of the first cough, was also recorded.
# [6] = In vitro cytotoxicity assay, CCK-8 method; type: cell-based; conditions: human, HepG2 cells
# Outline: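 HepG2 cells at 50,000/well, grown to 80–90% confluence, exposed to compound dilutions or DMSO vehicle for 48 h at 37 °C. Viability by CCK-8 (1.5 h, 37 °C), absorbance at 450 nm; CC50 calculated.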
# [7] = In vitro metabolic stability, human liver microsome; type: in vitro ADME; conditions: liver microsomes, 1 mg/mL liver microsome protein, 37° C., NA = essentially not metabolized, read-out: T1/2 in human liver microsome
# Outline: (§1)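 Compounds incubated with rat or human liver microsomes. At each time point reactions stopped with cold acetonitrile containing internal standards and centrifuged. Supernatants analysed by LC-MS to derive in vitro metabolic half-life.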
# [8] = In vitro metabolic stability, rat liver microsome; type: in vitro ADME; conditions: liver microsomes, 1 mg/mL liver microsome protein, 37° C., NA = essentially not metabolized, read-out: T1/2 in rat liver microsome
# Outline: as §1
# [9] = In vitro metabolic stability, guinea pig liver microsome; type: in vitro ADME; conditions: liver microsomes, 1 mg/mL liver microsome protein, 37° C., NA = essentially not metabolized, read-out: T1/2 in guinea pig liver microsome
# Outline: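 Test compound incubated at 37° C. in microsomes (1 mg/mL protein) with NADPH-regenerating system (1 mM NADP, 6 mM glucose 6-phosphate, 25 U/mL G6PDH, 5 mM MgCl2). Timed aliquots quenched in cold acetonitrile with internal standards; supernatant analysed by LC-MS to derive in vitro half-life.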
# [10] = system: Male SD rats; assay: Two-bottle dysgeusia test (quinine water vs normal water); type: in vivo, rat; conditions: for Quinine/tap water* 100%: rats, single intraperitoneal injection
# Method: All drinking water bottles were removed out 20 h before the start of the formal experiment, and all the animals were deprived of water until the start of the experiment. In the experiment, all the animals were randomly grouped and then subjected to a single intraperitoneal injection of a test compound or a vehicle before water was resupplied. The administration time was determined according to the Tmax of the test compound. Then the animals were placed in separate cages, and two bottles of drinking water (one bottle of normal drinking water and one bottle of 0.3 mM quinine water) were provided.
# [11] = 30 mg/kg oral, 2 h before ATP-citric acid exposure
# [12] = before administration (baseline of the group)
# [13] = 63 mg/kg oral, 40 min before ATP-citric acid exposure
# Chain of hP2X2/3 (heterodimeric receptors formed by human purinergic P2X receptors subtype 2 and subtype 3) (P56373 whole entry): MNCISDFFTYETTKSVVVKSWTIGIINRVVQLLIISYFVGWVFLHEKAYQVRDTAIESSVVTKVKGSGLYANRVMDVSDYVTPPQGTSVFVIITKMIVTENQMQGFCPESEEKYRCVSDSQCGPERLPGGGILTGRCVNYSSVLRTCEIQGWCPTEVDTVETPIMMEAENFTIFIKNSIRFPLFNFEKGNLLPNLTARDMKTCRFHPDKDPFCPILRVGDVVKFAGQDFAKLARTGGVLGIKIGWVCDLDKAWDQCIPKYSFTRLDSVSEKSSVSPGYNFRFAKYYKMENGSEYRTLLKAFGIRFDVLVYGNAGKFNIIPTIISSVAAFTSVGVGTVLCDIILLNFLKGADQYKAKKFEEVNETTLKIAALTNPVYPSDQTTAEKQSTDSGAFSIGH
# Chain of hP2X2/3 (heterodimeric receptors formed by human purinergic P2X receptors subtype 2 and subtype 3) (Q9UBL9 whole entry): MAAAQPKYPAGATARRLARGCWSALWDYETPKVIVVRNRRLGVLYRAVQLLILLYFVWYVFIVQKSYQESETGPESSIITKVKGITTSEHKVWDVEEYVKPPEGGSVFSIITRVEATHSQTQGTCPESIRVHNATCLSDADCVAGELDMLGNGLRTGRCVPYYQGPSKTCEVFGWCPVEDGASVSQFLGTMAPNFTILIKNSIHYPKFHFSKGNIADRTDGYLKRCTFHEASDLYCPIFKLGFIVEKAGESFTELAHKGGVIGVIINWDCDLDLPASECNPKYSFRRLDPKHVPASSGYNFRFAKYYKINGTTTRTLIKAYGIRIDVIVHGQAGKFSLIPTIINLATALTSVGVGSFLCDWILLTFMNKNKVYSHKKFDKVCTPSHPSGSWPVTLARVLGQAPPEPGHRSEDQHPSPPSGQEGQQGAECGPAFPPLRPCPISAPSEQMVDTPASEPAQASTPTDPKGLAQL
# Chain of hP2X3 (human purinergic P2X receptor subtype 3) (P56373 whole entry): as the sequence (P56373 whole entry) above
compound,measurement,setting,value
"COc1cc(C(C)C)c(Oc2cnc(N)nc2N)cc1S(N)(=O)=O [AF-219, reference compound]",Cough inhibition ratio vs. vehicle (%),[1]; [11],45.20%
same,Number of coughs during 10 min,[1]; [11],11.42
same,Dysgeusia (in words),[2],serious dysgeusia
same,Efficacy for refractory cough (in words),[2],relatively good efficacy for refractory cough
"COC(=O)N1CCO[C@@H](Cc2c(-c3c(F)cc(-c4ncc[nH]4)cc3F)nc3cc(C)ccn23)C1 [Compound 7, methyl (S)-2-((2-(2,6-difluoro-4-(1H-imidazol-2-yl)phenyl)-7-methylimidazo[1,2-a]pyridin-3-yl)methyl)morpholine-4-carboxylate]",IC50,[3],< 0.01 µM
same,Folds of selectivity,[4],A (key: A: folds of selectivity >1000; B: 200< folds of selectivity ≤1000; C: folds of selectivity ≤200)
same,IC50,"[4]; HEK293 cells expressing hP2X2/3, agonist BZ-ATP 5 μM, unit inferred",> 60 µM
same,Number of coughs and cough latency (in words),[5]; 30 mg/kg,can effectively reduce the number of coughs and prolong the cough latency
same,inhibition in vivo at 30 mg/kg,"[5]; 30 mg/kg, read-out: Cough inhibition rate Vs Baseline (%)",42.6%
same,inhibition in vivo at 30 mg/kg,"[5]; 30 mg/kg, read-out: Cough inhibition rate Vs Vehicle (%)",38.3%
same,CC50 at 48 h,[6],195 µM
same,half-life,[7],2.13 h
same,half-life,[8],0.326 h
same,half-life,[9],0.348 h
same,Ratio of quinine/water intake (in words),"[10]; 20 mg/kg, compared with the blank vehicle",almost unaffected
same,Quinine/tap water* 100%,"[10]; Table 8, 20 mg/kg, water intake within 15 min, 0.3 mM quinine",6.91%
"COC(=O)N1CCO[C@@H](Cc2c(-c3c(F)cc(S(N)(=O)=O)cc3F)nc3cc(Cl)ccn23)C1 [Compound 172, methyl (S)-2-((7-chloro-2-(2,6-difluoro-4-sulfamoylphenyl)imidazo[1,2-a]pyridin-3-yl)methyl)morpholine-4-carboxylate]",Folds of selectivity,[4],>85714
same,Cough inhibition rate Vs Baseline (%),[5]; 30 mg/kg,50.6%
same,Cough inhibition rate Vs Vehicle (%),[5]; 30 mg/kg,43.9%
same,Number of coughs and cough latency (in words),[5]; 30 mg/kg,can effectively reduce the number of coughs and prolong the cough latency
same,Mean cough latency,"[5]; after administration, 30 mg/kg",118.89
same,Mean number of coughs,"[5]; after administration, 30 mg/kg",9.67
same,Mean cough latency,[5]; [12],87.56
same,Mean number of coughs,[5]; [12],19.56
same,Number of coughs during 10 min,"[1]; 3 mg/kg oral, 2 h before ATP-citric acid exposure",14.42
same,Number of coughs during 10 min,"[1]; 10 mg/kg oral, 2 h before ATP-citric acid exposure",10.17
same,Number of coughs during 10 min,[1]; [11],9.83
same,Number of coughs / cough inhibition (in words),[1],stronger cough inhibition effect than positive compound 2
same,Number of coughs / cough inhibition (in words),[1]; listed as compound 172,can significantly reduce the number of coughs; also recorded: inhibition in a dose-dependent manner
same,CC50 at 48 h,[6],57.1 µM
same,half-life,[7],13.7 h
same,half-life,[8],3.72 h
same,half-life,[9],6.84 h
same,Ratio of quinine/water intake of rats (in words),"[10]; 5 mg/kg, 10 mg/kg and 20 mg/kg, compared with the blank vehicle",almost unaffected
same,Quinine/tap water* 100%,"[10]; Table 9, 5 mg/kg",7.05%
same,Quinine/tap water* 100%,"[10]; Table 9, 10 mg/kg",7.41%
same,Quinine/tap water* 100%,"[10]; Table 9, 20 mg/kg",8.66%
"COc1ccc2c(c1)[C@]13CCCC[C@@H]1[C@H](C2)N(C)CC3 [Dextromethorphan, dextromethorphan, reference compound]",Cough inhibition ratio vs. vehicle (%),[1]; [13],61.60%
same,Number of coughs during 10 min,[1]; [13],8.00
same,Number of coughs / cough inhibition (in words),[1],can significantly reduce the number of coughs
